We go through two compounds from DBAASP.

In brackets after ≈: the same amount, converted by molar mass. Bounds are passed on as bounds.

Some test systems named below: Aerococcus viridans; Bacillus megaterium; Enterococcus faecalis; Escherichia coli 1106; Escherichia coli D22; Escherichia coli D31; Micrococcus luteus; Pseudomonas alginovora; Salmonella typhimurium; Staphylococcus aureus.
Assay in all cases: ≥ marks a high value that may be exact or a test limit, other limits are often not marked, values filed in µg/mL are converted to µM
For experiment [1], the system named is Aspergillus fumigatus KCTC 4165.
Experiment [2] concerns Bacillus subtilis KCTC 1918.
Experiment [3] relates to Candida albicans TIMM 1768.
The test system of experiment [4] is Escherichia coli KCTC 1682.
For experiment [5], the system named is Pseudomonas aeruginosa KCTC 1637.
In experiment [6] the test system is Salmonella typhimurium KCTC 1926.
Experiment [7] concerns Staphylococcus aureus KCTC 1621.
Experiment [8] has as its system Streptococcus pyogenes KCTC 3096.
The subject of experiment [9] is Pseudoalteromonas carrageenovora ATCC 43555.

On to `CCC(C)C(NC(=O)C(CCCCN)NC(=O)C(CCCCN)NC(=O)C(CC(C)C)NC(=O)C(CCCCN)NC(=O)C(CCC(=O)O)NC(=O)CN)C(=O)NCC(=O)NC(CCC(N)=O)C(=O)NC(CCCCN)C(=O)NC(C(=O)NC(CCCCN)C(=O)NC(CC(N)=O)C(=O)NC(Cc1ccccc1)C(=O)NC(Cc1ccccc1)C(=O)NC(CCC(N)=O)C(=O)NC(CCCCN)C(=O)NC(CC(C)C)C(=O)O)C(C)CC` (centres undefined) [GEKLKKIGQKIKNFFQKL], for which the MIC is not below 100 µM in experiment [1]; not below 50 µM in [2]; not below 50 µM in experiment [3]; not below 50 µM in experiment [4]; 12.5 µM (≈ 26.8 µg/mL) in [5]; 12.5 µM (≈ 26.8 µg/mL) in experiment [6]. The MIC in experiment [7] and in [8] was not below 50 µM in each case.

For `CC[C@H](C)[C@H](NC(=O)CN)C(=O)NCC(=O)N[C@@H](CCCCN)C(=O)N[C@@H](Cc1ccccc1)C(=O)N[C@@H](CC(C)C)C(=O)N[C@@H](CCCCN)C(=O)N[C@@H](CCCCN)C(=O)N[C@@H](C)C(=O)N[C@@H](CCCCN)C(=O)N[C@@H](CCCCN)C(=O)N[C@@H](Cc1ccccc1)C(=O)NCC(=O)N[C@@H](CCCCN)C(=O)N[C@@H](C)C(=O)N[C@@H](Cc1ccccc1)C(=O)N[C@H](C(=O)N[C@@H](CCCCN)C(=O)N[C@@H](CCSC)C(=O)N[C@@H](CCCCN)C(=O)N[C@@H](CCCCN)C(N)=O)C(C)C` [GIGKFLKKAKKFGKAFVKMKK], the MIC in the experiment with Aerococcus viridans was 0.707 µM (≈ 1.68 µg/mL); in the experiment on Bacillus megaterium, 0.707 µM (≈ 1.68 µg/mL); in the experiment with Enterococcus faecalis, 12.6 µM (≈ 30.1 µg/mL); in the experiment with Escherichia coli 1106 it was 1.41 µM (≈ 3.37 µg/mL); against Escherichia coli D22, 1.41 µM (≈ 3.37 µg/mL); in the experiment on Escherichia coli D31, 1.41 µM (≈ 3.37 µg/mL). The minimum inhibitory concentration (MIC) is 0.707 µM (≈ 1.68 µg/mL) in the experiment with Micrococcus luteus; 7.07 µM (≈ 16.8 µg/mL) in experiment [9]; 14.1 µM (≈ 33.7 µg/mL) against Pseudomonas alginovora; 2.83 µM (≈ 6.74 µg/mL) in the experiment with Salmonella typhimurium; 1.41 µM (≈ 3.37 µg/mL) in the experiment with Staphylococcus aureus.

As usually defined, the MIC is the smallest concentration in the dilution series that meets the test's criterion for growth inhibition. Low readings indicate inhibition by little substance, high ones a need for much substance.
